In ChEMBL document CHEMBL1201861, “Genomics of Drug Sensitity in Cancer screening data, Wellcome Trust Sanger Institute”:

Legend:
Test in all cases: cells
KP-N-YS = type: functional, cell-based, Homo sapiens; conditions: Homo sapiens, KP-N-YS;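 also: cell viability assay measuring inhibition of cell line growth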
Description: SANGER: Inhibition of human KP-N-YS cell growth in a cell viability assay.

HCE-T = type: functional, cell-based, Homo sapiens; conditions: Homo sapiens, HCE-T;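 also: cell viability assay read-out, reporting inhibition of HCE-T cell growth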
Description: SANGER: Inhibition of human HCE-T cell growth in a cell viability assay.

RCC10RGB = type: functional, cell-based, Homo sapiens; conditions: Homo sapiens, RCC10RGB;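 also: growth inhibition of human RCC10RGB cells, read out by a cell viability assay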
Description: SANGER: Inhibition of human RCC10RGB cell growth in a cell viability assay.

ONS-76 = type: functional, cell-based, Homo sapiens; conditions: Homo sapiens, ONS-76;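 also: growth inhibition of human ONS-76 cells, read out with a cell viability assay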
Description: SANGER: Inhibition of human ONS-76 cell growth in a cell viability assay.

MC116 = type: functional, cell-based, Homo sapiens; conditions: Homo sapiens, MC116;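 also: growth inhibition of MC116 cells, read out with a cell viability assay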
Description: SANGER: Inhibition of human MC116 cell growth in a cell viability assay.

KU812 cell line = type: functional, cell-based, Homo sapiens; conditions: Homo sapiens, KU812;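 also: growth inhibition of KU812 cells, read out with a cell viability assay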
Description: SANGER: Inhibition of human KU812 cell growth in a cell viability assay.

GI-1 = type: functional, cell-based, Homo sapiens; conditions: Homo sapiens, GI-1;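 also: growth inhibition of human GI-1 cells, measured with a cell viability readout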
Description: SANGER: Inhibition of human GI-1 cell growth in a cell viability assay.

D-263MG = type: functional, cell-based, Homo sapiens; conditions: Homo sapiens, D-263MG
Description: SANGER: Inhibition of human D-263MG cell growth in a cell viability assay.

MZ7-mel = type: functional, cell-based, Homo sapiens; conditions: Homo sapiens, MZ7-mel;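 also: growth inhibition of human MZ7-mel cells, measured by a cell viability assay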
Description: SANGER: Inhibition of human MZ7-mel cell growth in a cell viability assay.

C8166 = type: functional, cell-based, Homo sapiens; conditions: Homo sapiens, C8166;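 also: growth inhibition of human C8166 cells measured by a cell viability assay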
Description: SANGER: Inhibition of human C8166 cell growth in a cell viability assay.

CW-2 = type: functional, cell-based, Homo sapiens; conditions: Homo sapiens, CW-2;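 also: growth inhibition of CW-2 cells, read out by a cell viability assay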
Description: SANGER: Inhibition of human CW-2 cell growth in a cell viability assay.

JAR = type: functional, cell-based, Homo sapiens; conditions: Homo sapiens, JAR;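 also: growth inhibition of human JAR cells determined with a cell viability assay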
Description: SANGER: Inhibition of human JAR cell growth in a cell viability assay.

LC-2-ad = type: functional, cell-based, Homo sapiens; conditions: Homo sapiens, LC-2-ad;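 also: growth inhibition of human LC-2-ad cells, read out with a cell viability assay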
Description: SANGER: Inhibition of human LC-2-ad cell growth in a cell viability assay.

697 = type: functional, cell-based, Homo sapiens; conditions: Homo sapiens
Description: SANGER: Inhibition of human 697 cell growth in a cell viability assay.

LS-513 = type: functional, cell-based, Homo sapiens; conditions: Homo sapiens, LS-513
Description: SANGER: Inhibition of human LS-513 cell growth in a cell viability assay.

Lu-65 = type: functional, cell-based, Homo sapiens; conditions: Homo sapiens, Lu-65;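 also: growth inhibition of Lu-65 cancer cells, read out by a cell viability assay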
Description: SANGER: Inhibition of human LU-65 cell growth in a cell viability assay.

SK-UT-1 = type: functional, cell-based, Homo sapiens; conditions: Homo sapiens, SK-UT-1;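 also: growth inhibition of SK-UT-1 cells, measured by a cell viability assay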
Description: SANGER: Inhibition of human SK-UT-1 cell growth in a cell viability assay.

NKM-1 = type: functional, cell-based, Homo sapiens; conditions: Homo sapiens, NKM-1;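 also: growth inhibition of NKM-1 cells, read out with a cell viability assay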
Description: SANGER: Inhibition of human NKM-1 cell growth in a cell viability assay.

TE-1 = type: functional, cell-based, Homo sapiens; conditions: Homo sapiens, TE-1;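 also: growth inhibition of the human TE-1 cell line, read out with a cell viability assay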
Description: SANGER: Inhibition of human TE-1 cell growth in a cell viability assay.

Calu-6 = type: functional, cell-based, Homo sapiens; conditions: Homo sapiens, Calu-6;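 also: growth of human Calu-6 cells, read out by a cell viability assay, IC50 marking inhibition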
Description: SANGER: Inhibition of human Calu-6 cell growth in a cell viability assay.

MMAC-SF = type: functional, cell-based, Homo sapiens; conditions: Homo sapiens, MMAC-SF;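 also: growth inhibition of human MMAC-SF cells, read out with a cell viability assay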
Description: SANGER: Inhibition of human MMAC-SF cell growth in a cell viability assay.

NB5 = type: functional, cell-based, Homo sapiens; conditions: Homo sapiens, NB5;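 also: growth inhibition of NB5 cells, read out as cell viability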
Description: SANGER: Inhibition of human NB5 cell growth in a cell viability assay.

NB12 = type: functional, cell-based, Homo sapiens; conditions: Homo sapiens, NB12;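 also: growth inhibition of human NB12 cells, read out by a cell viability assay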
Description: SANGER: Inhibition of human NB12 cell growth in a cell viability assay.

L-428 = type: functional, cell-based, Homo sapiens; conditions: Homo sapiens, L-428
Description: SANGER: Inhibition of human L-428 cell growth in a cell viability assay.

HuTu80 = type: functional, cell-based, Homo sapiens, HUTU-80; conditions: Homo sapiens, HuTu80;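 also: growth inhibition of HuTu80 human cells, determined with a cell viability readout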
Description: SANGER: Inhibition of human HUTU-80 cell growth in a cell viability assay.

SNB-75 = type: functional, cell-based, Homo sapiens; conditions: Homo sapiens, SNB-75;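 also: cell viability assay measuring growth inhibition of human SNB-75 cells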
Description: SANGER: Inhibition of human SNB75 cell growth in a cell viability assay.

OMC-1 = type: functional, cell-based, Homo sapiens; conditions: Homo sapiens, OMC-1;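 also: growth inhibition of the OMC-1 cell line, measured by a cell viability assay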
Description: SANGER: Inhibition of human OMC-1 cell growth in a cell viability assay.

MLMA = type: functional, cell-based, Homo sapiens; conditions: Homo sapiens, MLMA;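 also: growth inhibition of MLMA cells (human), determined through a cell viability readout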
Description: SANGER: Inhibition of human MLMA cell growth in a cell viability assay.

A101D = type: functional, cell-based, Homo sapiens; conditions: Homo sapiens, A101D;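 also: growth inhibition of the cell line, measured with a viability assay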
Description: SANGER: Inhibition of human A101D cell growth in a cell viability assay.

NB69 = type: functional, cell-based, Homo sapiens; conditions: Homo sapiens, NB69;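 also: growth inhibition of NB69 cells, determined by a cell viability assay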
Description: SANGER: Inhibition of human NB69 cell growth in a cell viability assay.

ACN = type: functional, cell-based, Homo sapiens; conditions: Homo sapiens, ACN;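 also: growth inhibition of the human ACN cell line, read out via cell viability testing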
Description: SANGER: Inhibition of human ACN cell growth in a cell viability assay.

TE-8 = type: functional, cell-based, Homo sapiens; conditions: Homo sapiens, TE-8;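 also: growth inhibition of TE-8 cells, measured with a cell viability readout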
Description: SANGER: Inhibition of human TE-8 cell growth in a cell viability assay.

GT3TKB = type: functional, cell-based, Homo sapiens; conditions: Homo sapiens, GT3TKB;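 also: growth inhibition of the cell line, read out with a cell viability assay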
Description: SANGER: Inhibition of human GT3TKB cell growth in a cell viability assay.

MHH-PREB-1 = type: functional, cell-based, Homo sapiens; conditions: Homo sapiens, MHH-PREB-1;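 also: cell viability assay measuring inhibition of proliferation of human MHH-PREB-1 cells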
Description: SANGER: Inhibition of human MHH-PREB-1 cell growth in a cell viability assay.

KG-1 = type: functional, cell-based, Homo sapiens; conditions: Homo sapiens, KG-1;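 also: growth inhibition of KG-1 cells, read out by a cell viability assay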
Description: SANGER: Inhibition of human KG-1 cell growth in a cell viability assay.

KURAMOCHI = type: functional, cell-based, Homo sapiens; conditions: Homo sapiens, KURAMOCHI;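 also: growth inhibition of KURAMOCHI cells, read out with a cell viability assay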
Description: SANGER: Inhibition of human KURAMOCHI cell growth in a cell viability assay.

KE-37 = type: functional, cell-based, Homo sapiens; conditions: Homo sapiens, KE-37;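 also: growth inhibition of KE-37 cells, read out with a cell viability assay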
Description: SANGER: Inhibition of human KE-37 cell growth in a cell viability assay.

LB2518-MEL = type: functional, cell-based, Homo sapiens; conditions: Homo sapiens, LB2518-MEL;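 also: growth inhibition of human LB2518-MEL cells, measured with a cell viability assay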
Description: SANGER: Inhibition of human LB2518-MEL cell growth in a cell viability assay.

SF-539 = type: functional, cell-based, Homo sapiens; conditions: Homo sapiens, SF-539;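 also: Read-out is a cell viability assay, with IC50 reflecting inhibition of cell growth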
Description: SANGER: Inhibition of human SF539 cell growth in a cell viability assay.

COLO-668 = type: functional, cell-based, Homo sapiens; conditions: Homo sapiens, COLO-668
Description: SANGER: Inhibition of human COLO-668 cell growth in a cell viability assay.

LNCaP-Clone-FGC = type: functional, cell-based, Homo sapiens; conditions: Homo sapiens, LNCaP-Clone-FGC
Description: SANGER: Inhibition of human LNCaP-Clone-FGC cell growth in a cell viability assay.

MZ2-MEL = type: functional, cell-based, Homo sapiens; conditions: Homo sapiens, MZ2-MEL;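 also: growth inhibition of MZ2-MEL cells read out with a cell viability assay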
Description: SANGER: Inhibition of human MZ2-MEL cell growth in a cell viability assay.

DEL = type: functional, cell-based, Homo sapiens; conditions: Homo sapiens, DEL;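 also: growth inhibition of the human DEL cell line, read out with a cell viability assay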
Description: SANGER: Inhibition of human DEL cell growth in a cell viability assay.

HT = type: functional, cell-based, Homo sapiens; conditions: Homo sapiens, HT
Description: SANGER: Inhibition of human HT cell growth in a cell viability assay.

SW872 = type: functional, cell-based, Homo sapiens; conditions: Homo sapiens, SW872;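 also: growth inhibition of SW872 cells, read out by a viability assay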
Description: SANGER: Inhibition of human SW872 cell growth in a cell viability assay.

JVM-2 = type: functional, cell-based, Homo sapiens; conditions: Homo sapiens, JVM-2;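 also: growth inhibition of JVM-2 cells determined by a cell viability assay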
Description: SANGER: Inhibition of human JVM-2 cell growth in a cell viability assay.

LU-134-A = type: functional, cell-based, Homo sapiens; conditions: Homo sapiens, LU-134-A
Description: SANGER: Inhibition of human LU-134-A cell growth in a cell viability assay.

DB = type: functional, cell-based, Homo sapiens; conditions: Homo sapiens, DB
Description: SANGER: Inhibition of human DB cell growth in a cell viability assay.

NCI-H446 = type: functional, cell-based, Homo sapiens; conditions: Homo sapiens, NCI-H446;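 also: growth inhibition of NCI-H446 cells determined by a cell viability assay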
Description: SANGER: Inhibition of human NCI-H446 cell growth in a cell viability assay.

**Q.** What does the source list for `Cc1cn(-c2cc(NC(=O)c3ccc(C)c(Nc4nccc(-c5cccnc5)n4)c3)cc(C(F)(F)F)c2)cn1` [NILOTINIB]?
**A.** IC50 (KP-N-YS): > 2000 nM; IC50 (HCE-T): > 2000 nM; IC50 (RCC10RGB): > 2000 nM; IC50 (ONS-76): > 2000 nM; IC50 (MC116): > 2000 nM; IC50 (KU812 cell line): 2.48 nM; IC50 (GI-1): > 2000 nM; IC50 (D-263MG): > 2000 nM; IC50 (MZ7-mel): > 2000 nM; IC50 (C8166): > 2000 nM; IC50 (CW-2): > 2000 nM; IC50 (JAR): > 2000 nM; IC50 (LC-2-ad): > 2000 nM; IC50 697: > 2000 nM; IC50 (LS-513): > 2000 nM; IC50 (Lu-65): > 2000 nM; IC50 (SK-UT-1): > 2000 nM; IC50 (NKM-1): 901 nM; IC50 (TE-1): > 2000 nM; IC50 (Calu-6): > 2000 nM; IC50 (MMAC-SF): > 2000 nM; IC50 (NB5): > 2000 nM; IC50 (NB12): > 2000 nM; IC50 (L-428): > 2000 nM; IC50 (HuTu80): > 2000 nM; IC50 (SNB-75): > 2000 nM; IC50 (OMC-1): > 2000 nM; IC50 (MLMA): > 2000 nM; IC50 (A101D): > 2000 nM; IC50 (NB69): > 2000 nM; IC50 (ACN): 1550 nM; IC50 (TE-8): > 2000 nM; IC50 (GT3TKB): > 2000 nM; IC50 (MHH-PREB-1): > 2000 nM; IC50 (KG-1): > 2000 nM; IC50 (KURAMOCHI): > 2000 nM; IC50 (KE-37): > 2000 nM; IC50 (LB2518-MEL): > 2000 nM; IC50 (SF-539): > 2000 nM; IC50 (COLO-668): > 2000 nM; IC50 (LNCaP-Clone-FGC): > 2000 nM; IC50 (MZ2-MEL): > 2000 nM; IC50 (DEL): > 2000 nM; IC50 (HT): > 2000 nM; IC50 (SW872): > 2000 nM; IC50 (JVM-2): > 2000 nM; IC50 (LU-134-A): > 2000 nM; IC50 (DB): > 2000 nM; IC50 (NCI-H446): > 2000 nM

**Q.** What does the source list for `CO[C@H]1C[C@@H]2CC[C@@H](C)[C@@](O)(O2)C(=O)C(=O)N2CCCC[C@H]2C(=O)O[C@H]([C@H](C)C[C@@H]2CC[C@@H](OC(=O)C(C)(CO)CO)[C@H](OC)C2)CC(=O)[C@H](C)/C=C(\C)[C@@H](O)[C@@H](OC)C(=O)[C@H](C)C[C@H](C)/C=C/C=C/C=C/1C` [TEMSIROLIMUS]?
**A.** IC50 (KP-N-YS): > 200 nM; IC50 (HCE-T): 49.2 nM; IC50 (RCC10RGB): > 200 nM; IC50 (ONS-76): 33 nM; IC50 (MC116): 25.5 nM; IC50 (KU812 cell line): > 200 nM; IC50 (GI-1): 107 nM; IC50 (D-263MG): 159 nM; IC50 (MZ7-mel): 161 nM; IC50 (C8166): > 200 nM; IC50 (CW-2): > 200 nM; IC50 (JAR): > 200 nM; IC50 (LC-2-ad): > 200 nM; IC50 697: 1.7 nM; IC50 (LS-513): > 200 nM; IC50 (Lu-65): > 200 nM; IC50 (SK-UT-1): 64.1 nM; IC50 (NKM-1): 198 nM; IC50 (TE-1): > 200 nM; IC50 (Calu-6): > 200 nM; IC50 (MMAC-SF): > 200 nM; IC50 (NB5): 111 nM; IC50 (NB12): > 200 nM; IC50 (L-428): > 200 nM; IC50 (HuTu80): > 200 nM; IC50 (SNB-75): > 200 nM; IC50 (OMC-1): > 200 nM; IC50 (MLMA): 3.31 nM; IC50 (A101D): 48.7 nM; IC50 (NB69): 9.46 nM; IC50 (ACN): 13 nM; IC50 (TE-8): > 200 nM; IC50 (GT3TKB): 90.6 nM; IC50 (MHH-PREB-1): 0.495 nM; IC50 (KG-1): 12.9 nM; IC50 (KURAMOCHI): > 200 nM; IC50 (KE-37): 16.5 nM; IC50 (LB2518-MEL): > 200 nM; IC50 (SF-539): 121 nM; IC50 (COLO-668): > 200 nM; IC50 (LNCaP-Clone-FGC): 184 nM; IC50 (MZ2-MEL): 56.9 nM; IC50 (DEL): 5.46 nM; IC50 (HT): 27.6 nM; IC50 (SW872): > 200 nM; IC50 (JVM-2): > 200 nM; IC50 (LU-134-A): 28.9 nM; IC50 (DB): 3.12 nM; IC50 (NCI-H446): > 200 nM
